“Also recorded” adds a separate entry of the source.
Key:
Assay type in all cases: physicochemical
[1] = Solubility of edaravone active pharmaceutical ingredient (EDVP) in liquids for dissolution
Experimental: The following liquids for dissolution (a) to (f) were used to prepare sample solutions, and the dissolution states of the edaravone active pharmaceutical ingredient in those solutions were investigated. Then, a liquid for dissolution that enabled to dissolve the edaravone active pharmaceutical ingredient was used to prepare a solution of phenylhydrazine, and the solution was measured using HPLC to check the peak shape of phenylhydrazine.
• (a) 0.1 mol/L hydrochloric acid test liquid • (b) 0.1 mol/L hydrochloric acid/acetonitrile (8:2) mixture • (c) 0.1 mol/L hydrochloric acid/acetonitrile (6:4) mixture • (d) 0.1 mol/L hydrochloric acid/acetonitrile (4:6) mixture • (e) 0.1 mol/L hydrochloric acid/acetonitrile (2:8) mixture • (f) 1 mol/L hydrochloric acid/acetonitrile (6:4) mixture Preparation of Sample Solutions
The edaravone active pharmaceutical ingredient weighed to about 0.10 g was dissolved in liquids for dissolution (a) to (f), and the solutions were adjusted exactly to 10 mLs to provide sample solutions.
Sample solutions were prepared with the following three liquids for dissolution. • 1. 0.1 mol/L hydrochloric acid/methanol (7:3) mixture • 2. 0.1 mol/L hydrochloric acid/methanol (6:4) mixture • 3. […]

[2] = as above; remark: listed apart in the source
[3] = Stability in solutions of 0.1 mol/L hydrochloric acid/methanol (5:5) mixture by HPLC (Example 3); conditions: 0.1 mol/L hydrochloric acid/methanol (5:5) compared with hydrochloric acid/acetonitrile (7:3) of Example 1
From the text: The stability of phenylhydrazine and/or 3-methyl-1-phenyl-2-pyrazolin-5-one in a solution was investigated provided that an organic solvent in a liquid for dissolution was changed from acetonitrile to methanol.
In accordance with the conditions of Example 1 other than the liquids for dissolution, the stability of phenylhydrazine and/or 3-methyl-1-phenyl-2-pyrazolin-5-one in the solutions was investigated.
Therefore, 0.1 mol/L hydrochloric acid/methanol (5:5) mixture was used to prepare the addition sample solution (edaravone active pharmaceutical ingredient: 0.10111 g, phenylhydrazine: 5 μL), the standard solution (phenylhydrazine hydrochloride: 13.154 mg), and the sample solution (edaravone active pharmaceutical ingredient: 0.10275 g), and the stability of the solutions was investigated.
The results of the stability study of phenylhydrazine in the solution of 0.1 mol/L hydrochloric acid/methanol (5:5) mixture are shown in Table 7 and FIG. 7.

[4] = Decomposition during storage of phenylhydrazine hydrochloride versus phenylhydrazine as standard substance (Test Example 1); conditions: compared with phenylhydrazine

CC1=NN(c2ccccc2)C(=O)C1 [EDVP, 3-methyl-1-phenyl-2-pyrazolin-5-one]
solubility of EDVP ([1]; (a) 0.1 mol/L hydrochloric acid test liquid, about 0.10 g to 10 mL): insoluble | solubility of EDVP ([1]; (b) 0.1 mol/L hydrochloric acid/acetonitrile (8:2) mixture, about 0.10 g to 10 mL): insoluble | solubility of EDVP ([1]; (c) 0.1 mol/L hydrochloric acid/acetonitrile (6:4) mixture, about 0.10 g to 10 mL): soluble | solubility of EDVP ([1]; (d) 0.1 mol/L hydrochloric acid/acetonitrile (4:6) mixture, about 0.10 g to 10 mL): soluble | solubility of EDVP ([1]; (e) 0.1 mol/L hydrochloric acid/acetonitrile (2:8) mixture, about 0.10 g to 10 mL): soluble | solubility of EDVP ([1]; (f) 1 mol/L hydrochloric acid/acetonitrile (6:4) mixture, about 0.10 g to 10 mL): soluble | solubility of EDVP ([1]; liquid for dissolution 3: 0.1 mol/L hydrochloric acid/methanol (5:5) mixture): soluble | solubility of EDVP ([2]; (g) 0.1 mol/L hydrochloric acid/acetonitrile (7:3) mixture, listed as edaravone active pharmaceutical ingredient): soluble; also recorded: dissolve completely

NNc1ccccc1 [phenylhydrazine]
decomposition of phenylhydrazine in the solution [3]: tended to be faster decomposed | dissolution of phenylhydrazine ([2]; 0.1 mol/L hydrochloric acid/acetonitrile mixture (volume ratio 7:3)): dissolve completely

Cl.NNc1ccccc1 [phenylhydrazine hydrochloride]
decomposition during storage [4]: less likely to decompose during storage

Reference: patent US12320793B2, “Analysis method of 3-methyl-1-phenyl-2-pyrazolin-5-one active pharmaceutical ingredient, treatment for amyotrophic lateral sclerosis, inhibition of progression of amyotrophic lateral sclerosis, and method of producing medicament containing 3-methyl-1-phenyl-2-pyrazolin-5-one active pharmaceutical …” (MITSUBISHI TANABE PHARMA CORPORATION, priority 2018, dated 2025)
